Measurements reported in ChEMBL document CHEMBL1201862, “PubChem BioAssay data set” (2004).
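Tested at 5 concentrations; 48 h exposure; 96-well plates; endpoints linearly interpolated, else capped at highest concentration. Abbreviation: GI50, concentration required for 50% inhibition of growth.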 Calls of active or inactive are those of the source. Rule as the data show it: active = GI50 up to about 1.1 µM and inactive = higher.

Experiments:
Assay in all cases: growth of human tumour cells (NCI), 48 h
CCRF-CEM = tested on: CCRF-CEM
HCT-15 = tested on: HCT-15
786-0 = tested on: 786-0
SK-MEL-5 = tested on: SK-MEL-5
UACC-62 = tested on: UACC-62
MDA-N = tested on: MDA-N
BT-549 = tested on: BT-549
SW-620 = tested on: SW-620
Malme-3M = tested on: Malme-3M
KM12 = tested on: KM12
OVCAR-5 = tested on: OVCAR-5
PC-3 = tested on: PC-3
NCI/ADR-RES = tested on: NCI/ADR-RES
A498 = tested on: A498
SR = tested on: SR
SNB-19 = tested on: SNB-19
MCF7 = tested on: MCF7
Hs-578T = tested on: Hs-578T
OVCAR-4 = tested on: OVCAR-4
NCI-H460 = tested on: NCI-H460
T47D = tested on: T47D
U-251 = tested on: U-251
SF-268 = tested on: SF-268
NCI-H522 = tested on: NCI-H522
RPMI-8226 = tested on: RPMI-8226
SF-539 = tested on: SF-539
MOLT-4 = tested on: MOLT-4
SK-MEL-2 = tested on: SK-MEL-2
LOX IMVI = tested on: LOX IMVI
HOP-62 = tested on: HOP-62
NCI-H23 = tested on: NCI-H23
MDA-MB-231 = tested on: MDA-MB-231
SK-OV-3 = tested on: SK-OV-3
HT-29 = tested on: HT-29
RXF 393 = tested on: RXF 393
SK-MEL-28 = tested on: SK-MEL-28
OVCAR-8 = tested on: OVCAR-8
HCT-116 = tested on: HCT-116
HL-60 = tested on: HL-60
CAKI-1 = tested on: CAKI-1
UO-31 = tested on: UO-31
TK-10 = tested on: TK-10
ACHN = tested on: ACHN
MDA-MB-435 = tested on: MDA-MB-435
EKVX = tested on: EKVX
M14 = tested on: M14
OVCAR-3 = tested on: OVCAR-3
COLO 205 = tested on: COLO 205
UACC-257 = tested on: UACC-257
IGROV-1 = tested on: IGROV-1
SN12C = tested on: SN12C
SF-295 = tested on: SF-295
HOP-92 = tested on: HOP-92
DU-145 = tested on: DU-145
A549 = tested on: A549
NCI-H226 = tested on: NCI-H226
SNB-75 = tested on: SNB-75
HCC 2998 = tested on: HCC 2998
K562 = tested on: K562

Measured: GI50

C[C@]12CC[C@@H]3c4ccc(OCC(=O)O)cc4CC[C@H]3[C@@H]1CCC2=O
> 100 µM: HCT-15
inactive: CCRF-CEM 1.32 µM | 786-0 > 100 µM | SK-MEL-5 > 100 µM | UACC-62 > 100 µM | MDA-N > 100 µM | BT-549 > 100 µM | SW-620 > 100 µM | Malme-3M > 100 µM | KM12 > 100 µM | OVCAR-5 > 100 µM | PC-3 > 100 µM | NCI/ADR-RES > 100 µM | A498 > 100 µM | SR > 100 µM | SNB-19 > 100 µM | MCF7 > 100 µM | Hs-578T > 100 µM | OVCAR-4 > 100 µM | NCI-H460 > 100 µM | T47D > 100 µM | U-251 > 100 µM | SF-268 > 100 µM | NCI-H522 > 100 µM | RPMI-8226 > 100 µM | SF-539 > 100 µM | MOLT-4 15.1 µM | SK-MEL-2 > 100 µM | LOX IMVI > 100 µM | HOP-62 > 100 µM | NCI-H23 > 100 µM | MDA-MB-231 > 100 µM | SK-OV-3 > 100 µM | HT-29 > 100 µM | RXF 393 > 100 µM | SK-MEL-28 > 100 µM | OVCAR-8 > 100 µM | HCT-116 > 100 µM | CAKI-1 > 100 µM | UO-31 > 100 µM | TK-10 > 100 µM | ACHN > 100 µM | MDA-MB-435 > 100 µM | EKVX > 100 µM | M14 > 100 µM | OVCAR-3 > 100 µM | COLO 205 > 100 µM | UACC-257 > 100 µM | IGROV-1 > 100 µM | SN12C > 100 µM | SF-295 > 100 µM | HOP-92 > 100 µM | DU-145 > 100 µM | A549 > 100 µM | NCI-H226 > 100 µM | SNB-75 > 100 µM
active: HL-60 0.13 µM

CC(=O)O[C@H]1[C@@H](OC2CCCC2(c2ccccc2)c2ccccc2)O[N+]([O-])=C[C@@H]1c1ccccc1 (stereo not given in full)
inactive: CCRF-CEM 3.19 µM | HCC 2998 10.4 µM | 786-0 1.86 µM | SK-MEL-5 8.02 µM | UACC-62 4.66 µM | MDA-N 4.94 µM | BT-549 4.24 µM | SW-620 3.14 µM | KM12 11.3 µM | OVCAR-5 17.6 µM | PC-3 8.24 µM | NCI/ADR-RES 5.42 µM | A498 8.22 µM | SR 2.4 µM | SNB-19 15.6 µM | MCF7 3.48 µM | Hs-578T 6.53 µM | OVCAR-4 6.46 µM | NCI-H460 17.9 µM | T47D 7.52 µM | U-251 7.83 µM | K562 4.41 µM | SF-268 5.01 µM | NCI-H522 1.26 µM | RPMI-8226 2.01 µM | MOLT-4 2.63 µM | SK-MEL-2 8.57 µM | LOX IMVI 2.1 µM | HOP-62 16.6 µM | NCI-H23 11.9 µM | MDA-MB-231 12.6 µM | SK-OV-3 14.5 µM | HT-29 2.51 µM | RXF 393 2.82 µM | SK-MEL-28 2.55 µM | OVCAR-8 2.47 µM | HCT-116 3.24 µM | HL-60 2.01 µM | CAKI-1 4.85 µM | UO-31 10.7 µM | TK-10 9.71 µM | ACHN 5.07 µM | MDA-MB-435 3.34 µM | EKVX 13.4 µM | M14 6.18 µM | OVCAR-3 8.87 µM | COLO 205 14.6 µM | UACC-257 9.25 µM | IGROV-1 2.79 µM | SN12C 4.66 µM | SF-295 8.13 µM | HOP-92 5.92 µM | DU-145 5.75 µM | A549 9.33 µM | NCI-H226 20.7 µM | SNB-75 5.55 µM
4.75 µM: HCT-15

CN(C)c1ccc(/C=C(\C#N)C(N)=C(C#N)C#N)cc1
inactive: CCRF-CEM > 100 µM | HCC 2998 > 100 µM | 786-0 > 100 µM | SK-MEL-5 > 100 µM | UACC-62 94 µM | MDA-N > 100 µM | BT-549 > 100 µM | SW-620 > 100 µM | Malme-3M 32 µM | KM12 > 100 µM | OVCAR-5 > 100 µM | PC-3 > 100 µM | NCI/ADR-RES > 100 µM | A498 > 100 µM | SR > 100 µM | SNB-19 > 100 µM | MCF7 > 100 µM | Hs-578T > 100 µM | OVCAR-4 > 100 µM | NCI-H460 > 100 µM | T47D > 100 µM | U-251 > 100 µM | K562 > 100 µM | SF-268 > 100 µM | NCI-H522 > 100 µM | SF-539 > 100 µM | LOX IMVI > 100 µM | HOP-62 > 100 µM | NCI-H23 > 100 µM | MDA-MB-231 > 100 µM | SK-OV-3 > 100 µM | HT-29 > 100 µM | RXF 393 > 100 µM | SK-MEL-28 80 µM | OVCAR-8 > 100 µM | HCT-116 > 100 µM | HL-60 > 100 µM | CAKI-1 > 100 µM | UO-31 > 100 µM | TK-10 > 100 µM | ACHN > 100 µM | MDA-MB-435 > 100 µM | EKVX > 100 µM | M14 30 µM | OVCAR-3 > 100 µM | COLO 205 > 100 µM | UACC-257 97.9 µM | IGROV-1 > 100 µM | SN12C > 100 µM | SF-295 > 100 µM | HOP-92 > 100 µM | DU-145 > 100 µM | A549 > 100 µM | NCI-H226 > 100 µM
> 100 µM: HCT-15

COc1cc([N+](=O)[O-])ccc1NC1=CC(=O)CCC1
inactive: CCRF-CEM > 100 µM | HCC 2998 > 100 µM | 786-0 > 100 µM | SK-MEL-5 > 100 µM | UACC-62 > 100 µM | MDA-N > 100 µM | BT-549 > 100 µM | SW-620 > 100 µM | Malme-3M > 100 µM | KM12 > 100 µM | OVCAR-5 > 100 µM | PC-3 > 100 µM | NCI/ADR-RES > 100 µM | A498 > 100 µM | SR > 100 µM | SNB-19 > 100 µM | MCF7 > 100 µM | Hs-578T > 100 µM | OVCAR-4 > 100 µM | NCI-H460 > 100 µM | T47D > 100 µM | U-251 > 100 µM | K562 > 100 µM | SF-268 > 100 µM | RPMI-8226 > 100 µM | SF-539 > 100 µM | MOLT-4 > 100 µM | SK-MEL-2 > 100 µM | LOX IMVI > 100 µM | HOP-62 > 100 µM | NCI-H23 > 100 µM | MDA-MB-231 > 100 µM | SK-OV-3 > 100 µM | HT-29 > 100 µM | RXF 393 > 100 µM | SK-MEL-28 59.4 µM | OVCAR-8 > 100 µM | HCT-116 > 100 µM | HL-60 > 100 µM | CAKI-1 49.5 µM | UO-31 > 100 µM | TK-10 > 100 µM | ACHN > 100 µM | MDA-MB-435 > 100 µM | EKVX > 100 µM | M14 > 100 µM | OVCAR-3 > 100 µM | COLO 205 > 100 µM | UACC-257 > 100 µM | IGROV-1 > 100 µM | SN12C > 100 µM | SF-295 > 100 µM | HOP-92 > 100 µM | DU-145 > 100 µM | A549 > 100 µM | NCI-H226 > 100 µM | SNB-75 27.6 µM
> 100 µM: HCT-15

COc1cc2ccccc2c2cc([N+](=O)[O-])oc12
inactive: BT-549 1.64 µM | KM12 1.43 µM | OVCAR-5 3.39 µM | PC-3 3.04 µM | NCI/ADR-RES 1.43 µM | Hs-578T 2.28 µM | OVCAR-4 3.48 µM | T47D 5.36 µM | U-251 1.17 µM | HOP-62 3.37 µM | NCI-H23 1.2 µM | OVCAR-8 1.9 µM | HL-60 5.26 µM | EKVX 4.19 µM | OVCAR-3 1.43 µM | IGROV-1 1.25 µM | SF-295 1.39 µM | SNB-75 2.62 µM
1.03 µM: HCT-15
active: CCRF-CEM 0.26 µM | 786-0 0.374 µM | SK-MEL-5 0.0948 µM | UACC-62 0.809 µM | MDA-N 0.216 µM | SW-620 0.893 µM | Malme-3M 0.126 µM | A498 0.177 µM | SR 0.0859 µM | SNB-19 0.811 µM | MCF7 0.35 µM | NCI-H460 0.183 µM | K562 0.319 µM | SF-268 0.537 µM | NCI-H522 0.183 µM | RPMI-8226 0.619 µM | SF-539 0.91 µM | MOLT-4 0.0792 µM | SK-MEL-2 0.197 µM | LOX IMVI 0.314 µM | MDA-MB-231 0.655 µM | SK-OV-3 0.49 µM | HT-29 0.406 µM | RXF 393 0.207 µM | SK-MEL-28 0.261 µM | HCT-116 0.249 µM | CAKI-1 0.48 µM | UO-31 0.618 µM | TK-10 0.173 µM | ACHN 0.174 µM | MDA-MB-435 0.214 µM | M14 0.142 µM | COLO 205 0.379 µM | UACC-257 0.179 µM | SN12C 0.927 µM | HOP-92 0.78 µM | DU-145 0.265 µM | A549 0.294 µM | NCI-H226 1.11 µM
